Laboratory results published in patent publication US20240391931A1 (Bristol-Myers Squibb Company, priority 2021, published 2024).

Experiments:
[1] = target: T1, HER2 wildtype (WT) protein (Homo sapiens, UniProt P04626); assay: HER2 signaling (pHER2 Tyr1248/total HER2 MSD) in N87 cells; assay type: cell-based; conditions: 1.5 hr compound, 1% FBS
T1 construct: BT474 and N87 cell lines which endogenously overexpress the HER2 wildtype (WT) protein; endogenous in cells; host or cells: BT474, N87
Experimental: (§1) In addition to the engineered cell lines, the following cell lines were used: BT474 (human breast carcinoma), N87 (human gastric carcinoma), NCI-H1781 (human lung adenocarcinoma), and A431 (human epidermoid carcinoma); all cell lines were obtained from the American Type Culture Collection (ATCC, Manassas, VA). NCI-H1781 were grown in complete RPMI 1640 (Life Technologies, Carlsbad, CA) supplemented with 15% fetal bovine serum (FBS, Life Technologies, Carlsbad, CA) and 1% Penicillin-Streptomycin (P/S, Life Technologies, Carlsbad, CA). N87 cells were grown in complete RPMI 1640 supplemented with 10% FBS and 1% P/S. BT474 and A431 cells were grown in DMEM (Life Technologies, Carlsbad, CA) supplemented with 10% FBS and 1% P/S. All cells were maintained and propagated in a humidified 5% CO2 incubator at 37° C.
(§2) HER2 signaling was assessed in BT474 and N87 cell lines which endogenously overexpress the HER2 wildtype (WT) protein, in NCI-H1781 cells which endogenously expresses a HER2 mutant protein containing a VC insertion in the kinase domain (HER2VC or G776delinsVC), and in engineered cell lines transduced to express the Her2 mutant protein containing the YVMA insertion (Hek293-HER2YVMA and BEAS2B-HER2YVMA).
(§3) BT474, N87, and NCI-H1781 were plated in 96-well tissue-culture treated plates (Corning Costar, Sigma-Aldrich) in full media and incubated overnight. Hek293-HER2YVMA and BEAS2B-HER2YVMA cells were plated in 96-well poly-D-lysine treated plates (BD Bioscience, San Jose, CA). For treatment with test compounds, the media was replaced with corresponding low serum media (1% FBS) containing test compound at 1.1, 0.37, 0.12, 0.041, 0.014, 0.005, 0.0014, 0.0005 μM or DMSO control (0.1%). Cells were incubated with compound for 1.5 hr at 37° C. After compound treatment, the media was removed and cells were lysed for 30 min on ice in complete MSD lysis buffer (prepared using MSD base lysis buffer (Meso-Scale Discovery) supplemented with cOmplete, EDTA-free Protease inhibitor cocktail (Roche), Phosphatase Inhibitor Cocktails 2 and 3 (Sigma-Aldrich), and 1 mM PMSF (Sigma-Aldrich)). Lysates were stored at −70° C. until further analysis.
(§4) HER2 signaling was evaluated using phospho (Tyr1248)/total ErbB2 whole cell lysate MSD plates (Meso-Scale Discovery, Gaithersburg, MD). The phospho HER2 signal was normalized to total HER2 for each sample; results are reported as % DMSO control. The normalized data was fitted using a sigmoidal curve analysis program (Graph Pad Prism version 6) with variable Hill slope to determine EC50 values.
(§5) The HER2 signaling results are provided in Table 4, under columns titled “BT474-pHER2 EC50”, “N87-pHER2 EC50”, and “NCI-H1781-pHER2 EC50”. Hek293-HER2YVMA ins fall under the heading “HEKYVMA-pHER2 EC50”, Ba/F3 HER2YVMA fall under the heading “Ba/F3 YVMA-pHER2 EC50” and BEAS2B-HER2YVMA fall under the heading “BEAS2B YVMA-pHER2 EC50”.

BT474 cells = assay: Cellular proliferation in BT474 cells (CellTiter Glo); assay type: cell-based, human; conditions: 120 h, redosed after 72 h
Experimental: as §1
(§6) Cell proliferation in adherent cells was investigated in two HER2 amplified cell lines (BT474, N87), and a HER2VC expressing cell line (NCI-H1781). BT474, NCI-H1781, and N87 were plated in their appropriate growth media supplemented with either 10% FBS (BT474, N87) or 15% FBS (NCI-H1781) and 1% P/S in 96-well white clear-bottom tissue culture plates (Costar, Sigma-Aldrich). The starting cell densities were 3500, 5500, and 5000 cells for BT474, NCI-H1781, and N87 cells, respectively. An 8-point standard curve with varying cell densities (starting at 50000 cells and serially diluting down 2-fold) was prepared for each cell line and read 6 h after plating. Cells were allowed to attach overnight prior to compound treatment. Compound solutions were prepared by serially diluting test compounds in DMSO (Sigma-Aldrich), then diluting 500× in their corresponding serum free media. Cells were treated by adding a 1:1 volume of test compound to a final concentration of […], 0.004, 0.0014, or 0.0005 μM, in 0.1% DMSO and 5% FBS (for BT474 and N87) or 7.5% FBS (NCI-H1781). In BT474 and NCI-H1781, cell media was replaced and cells were redosed with fresh test compound solutions after 72 h. Viability was determined by CellTiter Glo (Promega, Madison, WI) after 72 h for N87 cells, and after 120 h for BT474 and […] cells. The results were converted to cell numbers using a standard curve; growth inhibition (GI50 values) were determined by Graph Pad Prism. […] The results are provided in Table 4, under columns titled “BT474-GI50”, “N87-GI50”, and “NCI-H1781-GI50”.

N87 cells = assay: Cellular proliferation in N87 cells (CellTiter Glo); assay type: cell-based, human; conditions: 72 h
Experimental: as §1, §6

HER2VC (G776delinsVC) = target: T2, HER2VC (G776delinsVC) (Homo sapiens, UniProt P04626, G776C/INS775V); assay: HER2 signaling (pHER2) in NCI-H1781 cells; assay type: cell-based; conditions: 1.5 hr compound, 1% FBS
T2 construct: NCI-H1781 cells which endogenously expresses a HER2 mutant protein; endogenous in cells; host or cells: NCI-H1781
T2 sequence (P04626 with tags, fused parts or gaps INS775V/G776C): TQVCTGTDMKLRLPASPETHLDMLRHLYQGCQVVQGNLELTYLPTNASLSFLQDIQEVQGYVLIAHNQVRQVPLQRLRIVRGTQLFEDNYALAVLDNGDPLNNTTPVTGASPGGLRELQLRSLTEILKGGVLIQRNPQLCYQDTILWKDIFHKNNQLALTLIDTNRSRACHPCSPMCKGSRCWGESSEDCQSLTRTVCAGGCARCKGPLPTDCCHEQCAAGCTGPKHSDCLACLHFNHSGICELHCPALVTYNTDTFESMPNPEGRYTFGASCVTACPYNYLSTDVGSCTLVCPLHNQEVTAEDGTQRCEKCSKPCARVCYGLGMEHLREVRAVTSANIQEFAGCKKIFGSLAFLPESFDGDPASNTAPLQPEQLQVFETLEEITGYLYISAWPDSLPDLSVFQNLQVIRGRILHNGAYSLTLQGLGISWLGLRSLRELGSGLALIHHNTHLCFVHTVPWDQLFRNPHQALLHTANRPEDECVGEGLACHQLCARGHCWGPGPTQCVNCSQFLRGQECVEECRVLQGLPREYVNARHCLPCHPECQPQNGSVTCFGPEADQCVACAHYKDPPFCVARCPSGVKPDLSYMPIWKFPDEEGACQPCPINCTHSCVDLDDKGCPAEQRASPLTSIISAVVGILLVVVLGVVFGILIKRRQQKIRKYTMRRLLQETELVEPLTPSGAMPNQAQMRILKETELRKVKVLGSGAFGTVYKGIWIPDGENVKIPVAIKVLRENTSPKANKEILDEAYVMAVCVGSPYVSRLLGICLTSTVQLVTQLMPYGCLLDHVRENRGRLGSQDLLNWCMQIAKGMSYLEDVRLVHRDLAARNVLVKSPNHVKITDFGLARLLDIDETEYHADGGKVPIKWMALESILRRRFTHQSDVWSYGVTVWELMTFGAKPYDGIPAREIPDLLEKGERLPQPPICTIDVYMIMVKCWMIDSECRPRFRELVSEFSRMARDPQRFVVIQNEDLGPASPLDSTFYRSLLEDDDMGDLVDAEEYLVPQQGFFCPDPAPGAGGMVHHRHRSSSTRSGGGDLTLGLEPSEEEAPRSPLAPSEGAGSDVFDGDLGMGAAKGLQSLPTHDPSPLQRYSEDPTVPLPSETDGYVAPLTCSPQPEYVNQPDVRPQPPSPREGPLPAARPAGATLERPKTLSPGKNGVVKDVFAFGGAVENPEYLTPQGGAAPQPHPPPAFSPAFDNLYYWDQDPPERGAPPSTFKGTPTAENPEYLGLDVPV
Experimental: as §1, §2, §3, §4, §5

NCI-H1781 cells = assay: Cellular proliferation in NCI-H1781 cells (CellTiter Glo); assay type: cell-based, human; conditions: 120 h, redosed after 72 h
Experimental: as §1, §6

[2] = Homo sapiens, BT-474, BT474 cells
[3] = Homo sapiens, NCI-H1781, NCI-H1781 cells

T1 sequence (P04626 23-1255): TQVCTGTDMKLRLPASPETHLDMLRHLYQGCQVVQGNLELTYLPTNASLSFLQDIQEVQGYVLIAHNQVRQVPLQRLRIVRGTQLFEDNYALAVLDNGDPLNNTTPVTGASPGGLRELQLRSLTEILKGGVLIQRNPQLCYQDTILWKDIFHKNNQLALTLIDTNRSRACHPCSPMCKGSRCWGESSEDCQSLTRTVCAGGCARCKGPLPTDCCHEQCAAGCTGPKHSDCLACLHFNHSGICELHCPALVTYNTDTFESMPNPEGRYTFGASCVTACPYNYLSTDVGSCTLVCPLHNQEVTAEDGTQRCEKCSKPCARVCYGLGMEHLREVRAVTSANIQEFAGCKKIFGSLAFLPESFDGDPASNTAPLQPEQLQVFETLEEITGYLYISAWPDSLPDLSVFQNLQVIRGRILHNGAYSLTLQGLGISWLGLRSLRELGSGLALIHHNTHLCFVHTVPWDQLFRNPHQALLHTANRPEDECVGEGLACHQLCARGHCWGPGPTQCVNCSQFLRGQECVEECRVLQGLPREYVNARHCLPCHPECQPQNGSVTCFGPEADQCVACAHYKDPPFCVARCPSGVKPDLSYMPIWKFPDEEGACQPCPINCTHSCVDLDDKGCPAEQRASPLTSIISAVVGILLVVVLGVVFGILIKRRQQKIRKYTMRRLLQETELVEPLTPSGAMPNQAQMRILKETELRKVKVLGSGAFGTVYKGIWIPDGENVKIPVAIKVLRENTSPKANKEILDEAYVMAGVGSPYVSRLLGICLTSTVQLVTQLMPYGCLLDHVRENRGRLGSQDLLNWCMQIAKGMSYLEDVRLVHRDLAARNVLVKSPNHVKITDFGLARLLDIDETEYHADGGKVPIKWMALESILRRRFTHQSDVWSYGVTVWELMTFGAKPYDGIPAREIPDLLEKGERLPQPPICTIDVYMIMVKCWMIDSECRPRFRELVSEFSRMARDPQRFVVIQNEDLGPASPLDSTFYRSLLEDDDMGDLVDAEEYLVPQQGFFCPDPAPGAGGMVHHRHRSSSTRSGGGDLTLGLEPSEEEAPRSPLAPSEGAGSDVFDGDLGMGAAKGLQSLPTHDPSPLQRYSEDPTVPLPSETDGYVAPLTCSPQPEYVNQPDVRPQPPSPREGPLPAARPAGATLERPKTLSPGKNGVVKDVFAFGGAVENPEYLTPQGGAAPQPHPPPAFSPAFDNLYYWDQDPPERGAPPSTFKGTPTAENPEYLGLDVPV

| Compound | EC50 (HER2VC (G776delinsVC)) | GI50 (BT474 cells; [2]) | GI50 (N87 cells; Homo sapiens) | GI50 (NCI-H1781 cells; [3]) | also measured |
| --- | --- | --- | --- | --- | --- |
| C=CC(=O)N1[C@H](C)Cc2c(sc3ncnc(Nc4ccc(Oc5ccc(C)nc5)c(C)c4)c23)[C@H]1C (racemic) [Compound 166, 1-(6,8-trans-dimethyl-4-((3-methyl-4-((6-methylpyridin-3-yl)oxy)phenyl)amino)-5,8-dihydropyrido[4′,3′:4,5]thieno[2,3-d]pyrimidin-7(6H)-yl)prop-2-en-1-one] | – | – | – | – | EC50 [1]: < 100 nM |
| Cc1ccc(Oc2ccc(Nc3ncnc4sc5c(c34)CC(C)N(C(=O)C=CCN(C)C)C5C)cc2C)cn1 (single isomer, unassigned) [Compound 161] | – | – | – | – | EC50 [1]: < 100 nM |
| Cc1ccc(Oc2ccc(Nc3ncnc4sc5c(c34)CC(C)N(C(=O)C=CCN(C)C)C5C)cc2C)cn1 (single isomer, unassigned) [Compound 162] | – | – | – | – | EC50 [1]: 350 to 1000 nM |
| Cc1ccc(Oc2ccc(Nc3ncnc4sc5c(c34)CN(C(=O)C=CCN(C)C)C5C)cc2C)cn1 (single isomer, unassigned) [Compound 170] | 100 to 350 nM | – | – | – | GI50 (BT474 cells; BT474 cells): 100 to 350 nM; GI50 (N87 cells): 100 to 350 nM; GI50 (NCI-H1781 cells; NCI-H1781 cells): 350 to 1000 nM |
| C=CC(=O)N1CCc2c(sc3ncnc(Nc4ccc(Oc5cccnc5)c(Cl)c4)c23)C1 [Compound 6, 1-(4-((3-chloro-4-(pyridin-3-yloxy)phenyl)amino)-5,8-dihydropyrido[4′,3′:4,5]thieno[2,3-d]pyrimidin-7(6H)-yl)prop-2-en-1-one] | < 100 nM | – | – | – | – |
| COc1cc(Nc2ncnc3sc4c(c23)CCN(C(=O)/C=C/CN(C)C)C4)ccc1Oc1ccccc1 [Compound 7, (E)-4-(dimethylamino)-1-(4-((3-methoxy-4-phenoxyphenyl)amino)-5,8-dihydropyrido[4′,3′:4,5]thieno[2,3-d]pyrimidin-7(6H)-yl)but-2-en-1-one] | < 100 nM | – | – | – | – |
| Cc1cc(Nc2ncnc3sc4c(c23)CCN(C(=O)/C=C/CN2CCOCC2)C4)ccc1Oc1ccc2ncnn2c1 [Compound 12] | – | – | – | – | EC50 [1]: < 100 nM |
| Cc1ccc(Oc2ccc(Nc3ncnc4sc5c(c34)CCN(C(=O)/C=C/CN3CC4CCC3C4)C5)cc2C)cn1 (centres unmarked) [Compound 14] | – | – | – | – | EC50 [1]: < 100 nM |
| Cc1ccc(Oc2ccc(Nc3ncnc4sc5c(c34)CN(C(=O)/C=C/CN(C)C)CC5)cc2C)cn1 [Compound 108, (E)-4-(Dimethylamino)-1-(4-((3-methyl-4-((6-methylpyridin-3-yl)oxy)phenyl)amino)-7,8-dihydropyrido[3′,4′:4,5]thieno[2,3-d]pyrimidin-6(5H)-yl)but-2-en-1-one] | – | < 100 nM | < 100 nM | < 100 nM | – |
| Cc1ccc(Oc2ccc(Nc3ncnc4sc5c(c34)CCN(C(=O)/C=C/CN3CCC(O)C(C)(C)C3)C5)cc2C)cn1 (centres unmarked) [Compound 114] | – | < 100 nM | < 100 nM | < 100 nM | – |
| Cc1ccc(Oc2ccc(Nc3ncnc4sc5c(c34)CCN(C(=O)/C=C/CN3CC4CC4(CO)C3)C5)cc2C)cn1 (centres unmarked) [Compound 118] | – | < 100 nM | < 100 nM | < 100 nM | – |
| Cc1ccc(Oc2ccc(Nc3ncnc4sc5c(c34)CCN(C(=O)/C=C/CN3CC[C@H](F)C3)C5)cc2C)cn1 [Compound 124] | – | < 100 nM | < 100 nM | < 100 nM | – |
| Cc1cc(Nc2ncnc3sc4c(c23)CCN(C(=O)/C=C/CN(C)C)C4)ccc1Oc1ccn2ccnc2c1 [Compound 126, (E)-4-(dimethylamino)-1-(4-((4-(imidazo[1,2-a]pyridin-7-yloxy)-3-methylphenyl)amino)-5,8-dihydropyrido[4′,3′:4,5]thieno[2,3-d]pyrimidin-7(6H)-yl)but-2-en-1-one] | – | < 100 nM | < 100 nM | – | GI50 (NCI-H1781 cells; Homo sapiens, NCI-H1781 cells): < 100 nM |
| Cc1nc2cc(Oc3ccc(Nc4ncnc5sc6c(c45)CCN(C(=O)/C=C/CN(C)C)C6)cc3C)ccn2n1 [Compound 127, (E)-4-(dimethylamino)-1-(4-((3-methyl-4-((2-methyl-[1,2,4]triazolo[1,5-a]pyridin-7-yl)oxy)phenyl)amino)-5,6-dihydropyrido[4′,3′:4,5]thieno[2,3-d]pyrimidin-7(8H)-yl)but-2-en-1-one] | – | < 100 nM | < 100 nM | – | GI50 (NCI-H1781 cells; Homo sapiens, NCI-H1781 cells): 100 to 350 nM |
| Cc1cc(Nc2ncnc3sc4c(c23)CN(C(=O)/C=C/CN(C)C)C4)ccc1Oc1ccn2ncnc2c1 [Compound 130, (E)-1-(4-((4-([1,2,4]Triazolo[1,5-a]pyridin-7-yloxy)-3-methylphenyl)amino)-5H-pyrrolo[3′,4′:4,5]thieno[2,3-d]pyrimidin-6(7H)-yl)-4-(dimethylamino)but-2-en-1-one] | – | < 100 nM | < 100 nM | < 100 nM | – |
| COc1ccc(Oc2ccc(Nc3ncnc4sc5c(c34)C(C)CN(C(=O)/C=C/CN(C)C)C5)cc2C)cn1 (centres unmarked) [Compound 152, (E)-4-(dimethylamino)-1-(4-((4-((6-methoxypyridin-3-yl)oxy)-3-methylphenyl)amino)-5-methyl-5,8-dihydropyrido[4′,3′:4,5]thieno[2,3-d]pyrimidin-7(6H)-yl)but-2-en-1-one] | < 100 nM | < 100 nM | < 100 nM | < 100 nM | – |
| Cc1cc(Nc2ncnc3sc4c(c23)CCN(C(=O)/C=C/CN(C)C)C4)ccc1Oc1ccc(N(C)C)nc1 [Compound 158, (E)-4-(dimethylamino)-1-(4-((4-((6-(dimethylamino)pyridin-3-yl)oxy)-3-methylphenyl)amino)-5,8-dihydropyrido[4′,3′:4,5]thieno[2,3-d]pyrimidin-7(6H)-yl)but-2-en-1-one] | < 100 nM | < 100 nM | < 100 nM | – | GI50 (NCI-H1781 cells; Homo sapiens, NCI-H1781 cells): < 100 nM |
| COc1ccc(Oc2ccc(Nc3ncnc4sc5c(c34)CCN(C(=O)/C=C/CN3CCOCC3)C5)cc2C)cn1 [Compound 164] | < 100 nM | < 100 nM | < 100 nM | 100 to 350 nM | – |
| Cc1ccc(Oc2ccc(Nc3ncnc4sc5c(c34)C(C)CN(C(=O)/C=C/CN3CCOCC3)C5)cc2C)cn1 (centres unmarked) [Compound 174, (E)-1-(5-Methyl-4-((3-methyl-4-((6-methylpyridin-3-yl)oxy)phenyl)amino)-5,6-dihydropyrido[4′,3′:4,5]thieno[2,3-d]pyrimidin-7(8H)-yl)-4-morpholinobut-2-en-1-one] | < 100 nM | – | < 100 nM | 100 to 350 nM | – |
